Experiment [1] addresses T1, human Werner helicase (WRN-BV08, amino acids 517-1235, L1074F) (Homo sapiens, UniProt Q14191, L1074F).
T1 construct: TEV-cleavable 8×His tag (C, cleaved yes); made in house; host or cells: Sf9 insect cells (baculovirus)
Briefly: WRN (BV08) ADP-Glo Assay (ATPase inhibition). It is filed as biochemical. The source says:
Example 2: WRN (BV08) ADP-Glo Assay Protocol
Bovine skin gelatin (BSG), dimethyl sulfoxide (DMSO), Pluronic F-127 and tris(2-carboxyethyl)phosphine hydrochloride solution (TCEP) were purchased from Sigma-Aldrich (St. Louis, MO) at the highest level of purity possible. Bicine buffer solution was purchased from Alfa Aesar (Tewksbury, MA) and compound NSC-617145 was purchased from Tocris (Minneapolis, MN). DNA duplex was synthesized at BGI (Shenzhen, China) and was composed of strand 1 with the sequence 5′-[…]-3′ (SEQ ID NO.: 1) and strand 2 with the sequence 5′-[…]-3′ (SEQ ID NO.: 2). DNA strands were annealed by heating to 95° C. for 5 minutes followed by slow cooling to room temperature. Compounds in 100% DMSO (0.1 μl) were spotted into a 384-well white polystyrene Optiplate-384 (Perkin Elmer; Waltham, MA) assay plate using a LabCyte Echo 550 (Agilent; Santa Clara, CA). DMSO (0.1 μl) was added to columns 12, rows A-H and column 24, rows I-P for the maximum signal control. Compound NSC-617145 (0.1 μl) was added to columns 12, rows I-P and 24, rows A-H for the minimum signal control (100% inhibition). Compounds/DMSO were preincubated for 15 minutes at 25° C. with 5 μl 2×WRN (BV08), prepared as described below, in assay buffer containing 20 mM Bicine (pH=7.5), 1 mM MgCl2, 10 mM KCl, 0.1% Pluronic F-127, 0.005% BSG, 1 mM TCEP. The reaction was initiated by the addition of 5 μl 2× substrate mixture in assay buffer and incubated for 60 minutes at 25° C. The final concentrations of the assay components were 0.15 nM WRN, 5 μM ATP, and 0.1 nM DNA duplex. The final DMSO concentration was 1% and the reference compound concentration (NSC-617145) used for the minimal signal control was 20 μM. The reaction was stopped by the addition of the ADP-Glo Kit components (Promega; Madison, WI) as directed and the relative luminescence units (RLU) were read on an Envision 2104 (Perkin Elmer; Waltham, MA). % inhibition calculation:
Where RLU=relative luminescence units, sample=signal in sample well, and MIN and MAX are the respective minimum and maximum signal controls.
Four-parameter IC50 fit equation:
Where top and bottom are normally allowed to float but may be fixed at 100 or 0 respectively in a 3-parameter fit. Y is the % inhibition and X is the compound concentration.
Molecular Biology and virus production. The DNA encoding human Werner helicase (Uniprot Q14191, amino acids 517-1235 with L1074F point mutation) was generated with codon-optimization for E. coli expression and subcloned into the pFastBac vector with a TEV cleavable 8×His tag (WRN—BV08). The baculovirus from the expression plasmid WRN—BV08 was generated from transfection and amplification following the manufacturer's instructions.
Sf9 cells grown in SF900II media were infected with 1:200 WRN—BV08 P2 virus and incubated for protein expression for 72 h at 27° C. The WRN protein was purified using the following protocol. The cell pellets were thawed and resuspended in buffer A (50 mM Tris, pH 7.5, 500 mM NaCl, 1 mM TCEP, 10% Glycerol) supplemented with 0.5% CHAPS, 1 mM [COMPOUND LEFT OUT], 1 μg/ml Leupeptin, 1 μg/ml Pepstatin, and the Pierce Universal Nuclease and cocktail tablet. Cleared lysates were loaded onto a Ni Sepharose™ excel column and washed with buffer A and bound protein was eluted with buffer A supplemented with 300 mM imidazole. The eluted protein was dialyzed against buffer A and digested by His-tagged TEV (1:5 ratio) overnight at 4° C. ZnCl2 was added into the sample at final 15 μM before loading onto a second Ni Sepharose™ excel column. Untagged WRN protein was eluted from the column with buffer A supplemented with 20 mM imidazole, dialyzed overnight into buffer B (50 mM Tris, pH 7.5, 1 mM TCEP, 10% Glycerol) supplemented with 150 mM NaCl and loaded onto a Heparin column. Proteins were eluted with a step gradient of buffer B supplemented with 150 mM, 200 mM, 300 mM and 500 mM NaCl. […]

A further experiment deals with T2, p21 in HCT116 cells (Homo sapiens, UniProt Q14191).
T2 construct: p21 induction in-cell western, 24 h
T2 sequence (Q14191 whole entry): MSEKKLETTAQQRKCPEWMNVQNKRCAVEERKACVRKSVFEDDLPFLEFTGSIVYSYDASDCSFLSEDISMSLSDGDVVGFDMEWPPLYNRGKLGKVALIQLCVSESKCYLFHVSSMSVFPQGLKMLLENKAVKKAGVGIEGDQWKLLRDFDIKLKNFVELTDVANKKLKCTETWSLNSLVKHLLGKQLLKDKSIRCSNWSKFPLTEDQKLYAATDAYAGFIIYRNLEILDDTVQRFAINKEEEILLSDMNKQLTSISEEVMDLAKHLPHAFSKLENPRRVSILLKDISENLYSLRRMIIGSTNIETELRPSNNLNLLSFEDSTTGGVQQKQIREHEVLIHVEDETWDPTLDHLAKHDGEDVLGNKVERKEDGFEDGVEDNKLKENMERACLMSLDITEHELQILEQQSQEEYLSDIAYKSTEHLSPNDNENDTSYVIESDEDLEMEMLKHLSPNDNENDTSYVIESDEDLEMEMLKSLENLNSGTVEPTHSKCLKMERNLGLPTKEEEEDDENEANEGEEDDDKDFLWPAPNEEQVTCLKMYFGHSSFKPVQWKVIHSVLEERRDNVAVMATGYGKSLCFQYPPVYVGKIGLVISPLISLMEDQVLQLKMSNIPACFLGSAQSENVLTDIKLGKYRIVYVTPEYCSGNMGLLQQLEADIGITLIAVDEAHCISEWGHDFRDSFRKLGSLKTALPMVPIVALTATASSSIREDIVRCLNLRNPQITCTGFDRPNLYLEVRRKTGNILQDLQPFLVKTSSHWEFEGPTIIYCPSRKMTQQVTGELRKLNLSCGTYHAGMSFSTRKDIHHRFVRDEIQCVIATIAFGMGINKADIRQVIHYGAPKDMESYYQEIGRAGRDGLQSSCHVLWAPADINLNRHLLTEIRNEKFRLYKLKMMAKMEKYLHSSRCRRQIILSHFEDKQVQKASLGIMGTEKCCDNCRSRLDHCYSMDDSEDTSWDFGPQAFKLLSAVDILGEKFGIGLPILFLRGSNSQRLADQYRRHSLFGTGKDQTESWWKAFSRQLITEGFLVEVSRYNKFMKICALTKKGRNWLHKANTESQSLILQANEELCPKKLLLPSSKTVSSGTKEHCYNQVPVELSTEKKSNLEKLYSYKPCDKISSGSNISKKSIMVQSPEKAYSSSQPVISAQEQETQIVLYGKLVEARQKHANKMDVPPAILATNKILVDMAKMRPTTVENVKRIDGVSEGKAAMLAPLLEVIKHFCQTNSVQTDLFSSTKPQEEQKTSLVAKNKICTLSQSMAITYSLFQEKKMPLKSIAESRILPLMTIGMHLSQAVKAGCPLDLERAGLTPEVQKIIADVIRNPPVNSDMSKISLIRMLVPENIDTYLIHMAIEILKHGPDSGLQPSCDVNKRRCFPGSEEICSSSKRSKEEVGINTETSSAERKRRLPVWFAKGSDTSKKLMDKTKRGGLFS
Briefly: p21 induction in HCT116 cells. The experiment is classed as cell-based. To be noted: 24 h, p21/GAPDH signal ratio, % activation vs internal reference WRN inhibitor, read-out: P21_EC50. On the procedure: (§1) Example 3: Method for Determining Effect on p21 Induction in Cells
(§2) The colon carcinoma cell line HCT116 was obtained from ATCC and cultured in growth medium consisting of Mccoy's 5A Medium (Gibco 16600108) supplemented with 10% FBS (Transgene FS201-02) and 100 units/mL penicillin-streptomycin (Gibco 15140122) and maintained at 37° C. under 5% CO2. On the day of seeding, 2,000 cells in 30 μL of culture media were plated per well to Poly-D-Lysine 384 Well Black Clear Plates (Biocoat 356663) and incubated overnight at 37° C. under 5% CO2. The following day, compounds were serially diluted in DMSO for a total of 11 test concentrations. The typical starting concentration of cpds was 10 uM with 2-fold dilutions. Next, 150 nL of diluted compound was added in duplicate to the assay plate, using an Echo 655 (Labcyte). The plate was centrifuged at 500 RPM for 1 min and then incubated at 37° C. under 5% CO2 for 24 h. After 24 h, medium was removed, and cells were fixed by adding 40 μL of 4% paraformaldehyde solution to each well and incubated for 20 min at room temperature. The plate was then washed 4 times with 100 μL per well of wash buffer (PBS with 0.1% Tween-20) using a microplate washer. Next, 30 μL of ice-cold methanol was added to each well and the plate was incubated at −20° C. for 10 min. The plate was washed 4 times with 100 µL per well of wash buffer by a microplate washer, then 30 μL per well of blocking buffer ((Intercept PBS blocking buffer (LI-COR 927-70001) with 0.05% Tween-20)) was added and the plate was incubated at room temperature with shaking for 2 h. Next, to each test well, 20 μL of primary antibody solution ((p21 Waf1/CIP (12D1) Rabbit mAb (Cell Signaling Technologies 2947) diluted 1:1000 and GAPDH (D4C6R) Mouse mAb (Cell Signaling Technologies 97166) diluted 1:2000 in blocking buffer)) was added and the plate was placed at 4° C., overnight. The following day, the plate was washed 5 times with 100 μL per well of wash buffer using a microplate washer for 5 min. 20 μL per well of secondary antibody ((IRDye 680CW Goat anti-Mouse IgG (H+L) (LI-COR 926-68070) diluted 1: 2000 in Blocking Buffer and IRDye 800CW Goat anti-Rabbit IgG (H+L) (LI-COR 926-32211) diluted 1: 2000 in Blocking Buffer)) was then added and the plate was stored for 2 h in the dark at room temperature with shaking. The plate was then washed 4 times with 100 μL per well of wash buffer again using a microplate washer. Finally, the p21 signal and the GAPDH signal were quantified using a LI-COR Odyssey CLx Imager machine reading at 800 nm and 700 nm, respectively. Each plate contained DMSO control (low control) and an internal reference WRN inhibitor (high control) respectively. For quantitation, the 800 nm/700 nm ratio was calculated for each well to give fold p21 induction and then percent activation for each compound well was calculated as follows ((100×(ratio cpd well-ratio low control)/(ratio high control−ratio low control)). EC50 values for each compound was generated after non-linear regression curve fitting using commercially available software.

Experiment [2] in a line: p21 induction in HCT116 cells. The experiment is classed as cell-based, human. Particulars: read-out: P21_EC50, 24 h, p21/GAPDH signal ratio, % activation vs internal reference WRN inhibitor. On the procedure:
as §1, §2

Where [3] appears, read: 0.15 nM WRN, 5 μM ATP, 0.1 nM DNA duplex, pH 7.5, 15 min preincubation, 60 min at 25° C., 1% DMSO, read-out: ADP-Glo_hWRN_IC50.

Read-outs that look alike come from different tables or passages of the source.

T1 sequence (Q14191 with tags, fused parts or gaps L1074F): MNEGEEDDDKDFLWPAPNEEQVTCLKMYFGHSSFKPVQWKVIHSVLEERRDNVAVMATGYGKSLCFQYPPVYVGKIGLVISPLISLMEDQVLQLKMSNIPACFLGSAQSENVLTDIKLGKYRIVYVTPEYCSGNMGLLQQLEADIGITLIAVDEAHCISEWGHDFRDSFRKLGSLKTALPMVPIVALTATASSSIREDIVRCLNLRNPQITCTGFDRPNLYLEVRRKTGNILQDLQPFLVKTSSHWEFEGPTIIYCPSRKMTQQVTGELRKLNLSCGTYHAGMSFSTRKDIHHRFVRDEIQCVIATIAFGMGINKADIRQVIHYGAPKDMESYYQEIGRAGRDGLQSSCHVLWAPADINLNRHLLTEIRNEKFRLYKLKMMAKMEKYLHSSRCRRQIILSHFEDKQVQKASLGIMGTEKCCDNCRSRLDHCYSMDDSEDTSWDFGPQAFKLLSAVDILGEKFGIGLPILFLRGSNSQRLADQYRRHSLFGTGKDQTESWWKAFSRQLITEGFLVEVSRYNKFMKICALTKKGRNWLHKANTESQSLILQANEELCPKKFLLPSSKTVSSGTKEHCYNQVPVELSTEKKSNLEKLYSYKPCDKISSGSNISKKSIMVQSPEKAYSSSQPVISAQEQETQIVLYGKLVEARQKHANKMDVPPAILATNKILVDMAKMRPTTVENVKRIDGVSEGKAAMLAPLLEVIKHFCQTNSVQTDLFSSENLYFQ

For the compound `CCc1c(N2CCN(C(=O)c3ncnc(C)c3O)CC2)c(=O)c2nc(N3CCCC3)sc2n1CC(=O)Nc1ccc(C(F)(F)F)cc1Cl` [Compound I-4, N-(2-chloro-4-(trifluoromethyl)phenyl)-2-(5-ethyl-6-(4-(5-hydroxy-6-methylpyrimidine-4-carbonyl)piperazin-1-yl)-7-oxo-2-(pyrrolidin-1-yl)thiazolo[5,4-b]pyridin-4(7H)-yl)acetamide], the IC50 in experiment [1] (setting [3]) is 5 to 50 nM. The EC50 at p21 in HCT116 cells lay within 2000 to 5000 nM.

For `CCc1c(N2CCN(C(=O)c3ncnc(C)c3O)CC2)c(=O)c2sc(-c3ccnc(OC)c3)nc2n1CC(=O)Nc1ccc(C(F)(F)F)cc1Cl` [Compound I-2, N-(2-chloro-4-(trifluoromethyl)phenyl)-2-(5-ethyl-6-(4-(5-hydroxy-6-methylpyrimidine-4-carbonyl)piperazin-1-yl)-2-(2-methoxypyridin-4-y1)-7-oxothiazolo[4,5-b]pyridin-4(7H)-yl)acetamide], in experiment [1] (setting [3]), the IC50 was below 5 nM. In addition, the EC50 on p21 in HCT116 cells is below 500 nM.

Turning to `CCc1c(N2CCN(C(=O)c3ncnc(C)c3O)CC2)c(=O)c2nc(C3=CCOCC3)sc2n1CC(=O)Nc1ccc(C(F)(F)F)cc1Cl` [1-3], the EC50 at p21 in HCT116 cells lay within 2000 to 5000 nM.

Consider `CCc1c(N2CCN(C(=O)c3ncnc(C)c3O)CC2)c(=O)c2nc(-c3cnn(C)c3)sc2n1CC(=O)Nc1ccc(C(F)(F)F)cc1Cl` [1-7], for which the IC50 in experiment [1] (setting [3]) fell in the range of 5 to 50 nM.

Regarding `CCc1c(N2CCN(C(=O)c3ncnc(C)c3O)CC2)c(=O)c2nc(-c3cnn(C)c3)sc2n1CC(=O)Nc1ccc(C(F)(F)F)cc1Cl` [Compound I-7, N-(2-chloro-4-(trifluoromethyl)phenyl)-2-(5-ethyl-6-(4-(5-hydroxy-6-methylpyrimidine-4-carbonyl)piperazin-1-y1)-2-(1-methyl-1H-pyrazol-4-y1)-7-oxothiazolo[5,4-b]pyridin-4(7H)-yl)acetamide], at p21 in HCT116 cells, the EC50 was above 5000 nM.

Take `C=C(C)c1nc2c(=O)c(N3CCN(C(=O)c4ncnc(C)c4O)CC3)c(CC)n(CC(=O)Nc3ccc(C(F)(F)F)cc3Cl)c2s1` [Compound I-6, N-(2-chloro-4-(trifluoromethyl)phenyl)-2-(5-ethyl-6-(4-(5-hydroxy-6-methylpyrimidine-4-carbonyl)piperazin-1-yl)-7-oxo-2-(prop-1-en-2-yl)thiazolo[5,4-b]pyridin-4(7H)-yl)acetamide]: the IC50 in experiment [1] is 5 to 50 nM. Moreover, the EC50 in experiment [2] was in the range of 500 to 2000 nM.

With `CCc1c(N2CCN(C(=O)c3ncnc(C)c3O)CC2)c(=O)c2sc(-c3ccnc(OC)c3)nc2n1CC(=O)NC12CC(C(F)(F)F)(C1)C2` [Compound I-8, 2-(5-ethyl-6-(4-(5-hydroxy-6-methylpyrimidine-4-carbonyl)piperazin-1-yl)-2-(2-methoxypyridin-4-y1)-7-oxothiazolo[4,5-b]pyridin-4(7H)-y1)-N-(3-(trifluoromethyl)bicyclo[1.1.1]pentan-1-yl)acetamide], the IC50 in experiment [1] (setting [3]) lay in the range of 5 to 50 nM. For the same compound, on p21 in HCT116 cells, the EC50 was above 5000 nM.

`CCc1c(N2CCN(C(=O)c3ncnc(C)c3O)CC2)c(=O)c2nc(-c3ccnc(OC)c3)sc2n1CC(=O)Nc1ccc(C(F)(F)F)cc1Cl` [Compound I-1, N-(2-chloro-4-(trifluoromethyl)phenyl)-2-(5-ethyl-6-(4-(5-hydroxy-6-methylpyrimidine-4-carbonyl)piperazin-1-yl)-2-(2-methoxypyridin-4-yl)-7-oxothiazolo[5,4-b]pyridin-4(7H)-yl)acetamide]: in experiment [1] (setting [3]), the IC50 lay in the range of 5 to 50 nM. Further, on p21 in HCT116 cells, the EC50 fell in the range of 500 to 2000 nM.

Regarding `CCc1c(N2CCN(C(=O)c3c(O)ccnc3OC)CC2)c(=O)c2nc(-c3ccnc(OC)c3)sc2n1CC(=O)Nc1ccc(C(F)(F)F)cc1Cl` [Compound I-5, N-(2-chloro-4-(trifluoromethyl)phenyl)-2-(5-ethyl-6-(4-(4-hydroxy-2-methoxynicotinoyl)piperazin-1-y1)-2-(2-methoxypyridin-4-y1)-7-oxothiazolo[5,4-b]pyridin-4(7H)-y1)acetamide], in experiment [1] (setting [3]), the IC50 is 5 to 50 nM. The EC50 at p21 in HCT116 cells was in the range of 500 to 2000 nM.

Take `CCc1c(N2CCN(C(=O)c3ncnc(C)c3O)CC2)c(=O)c2nc(C3=CCOCC3)sc2n1CC(=O)Nc1ccc(C(F)(F)F)cc1Cl` [Compound I-3, N-(2-chloro-4-(trifluoromethyl)phenyl)-2-(2-(3,6-dihydro-2H-pyran-4-y1)-5-ethyl-6-(4-(5-hydroxy-6-methylpyrimidine-4-carbonyl)piperazin-1-yl)-7-oxothiazolo[5,4-b]pyridin-4(7H)-yl)acetamide]: the IC50 in experiment [1] (setting [3]) lay within 5 to 50 nM.
